Source: a melting point compilation (Tetko et al.; mined from patent text by program, amines drawn as free bases though some values may be those of a salt)

| melting point | SMILES |
| --- | --- |
| 124 to 126 °C | CCCc1nn(-c2ccc(C(F)(F)F)cn2)cc1CCCOc1ccc(CCC(=O)O)c(C)c1 |
| 189 to 190 °C | Cc1cc2cc(C#N)c(Cl)nc2cc1C |
| 175 to 176 °C | NC(=O)NC1CCCCC1 |
| 234 °C | NS(=O)(=O)c1cc(C(=O)O)cc(NCc2ccccc2)c1S(=O)c1ccccc1 (configuration not stated) |
| 134 to 136 °C | CCCC1=C(Cl)C(=O)c2oc(Cc3ccc(OC)c(Cl)c3)c(C)c2C1=O |
| 160 to 161 °C | CC(Cc1cccnc1)n1nnc2cc3c(=O)n(C4CC4)nnc3cc2c1=O (configuration not stated) |
| 105 to 106 °C | CC(C)NC(=O)n1nc(Oc2c(Cl)cc(C(F)(F)F)cc2Cl)cc1C(Cl)(Cl)Cl |
| 70.2 to 70.9 °C | CCCOC(=O)Oc1ccc(-c2ccc(C#N)cc2)cc1 |
| 96 °C | COc1ccc(-c2cc(CCC(=O)O)sc2-c2ccc(OC)cc2)cc1 |
| 146 to 147 °C | CC(=O)N[C@@H](C)COc1ccc2nc(-c3cc(F)c(OCC4CC4)c(F)c3)oc2c1F |
| 107 to 108 °C | COc1ccc(C2CCc3ccccc3C2=O)cc1 (configuration not stated) |
| 149 °C | CCN(C(=O)n1occc1=O)c1ccc(Cl)cc1 |
| 266 to 268 °C | NC1=NC2=NN(c3ccco3)NC2=C2N=CN(Cc3ccc(F)cc3)N12 |
| 204 to 206 °C | NNC(=O)c1cn2c(nc1=O)CCC2 |
| 117 to 118 °C | Cc1nnc(-c2ccc3occ(-c4ccccc4)c3c2)o1 |
| 111 to 113 °C | COC1=C(OC)C(=Nc2ccc(Cl)c(Cl)c2)N(C)C1=O |
| 135 to 136 °C | CC(=O)N(c1ccccc1)c1ccccc1-c1ccc(I)cc1 |
| 115 to 117 °C | CC(O)c1cc(C[C@H](NC(=O)c2c(Cl)cccc2Cl)C(=O)O)ccc1-c1ccccc1 (some centres not stated) |
| 106 to 115 °C | CC(C)(C)OC(=O)Nc1cnc(F)cc1C(=O)CC#N |
| 148 to 150 °C | N=C(N)c1ccc2c(c1)N(CC(=O)c1ccccc1-c1ccccc1)C(=O)CN2 |
| 191 to 194 °C | Cc1nn(C)c(=O)c(-n2nc(-c3ccc(C(F)(F)F)cc3)cc2C)c1O |
| 121 to 123 °C | COC(=O)C(Cc1cc(Br)c(S(=O)(=O)c2ccc(OC)c(C(C)C)c2)c(Br)c1)C(=O)OC |
| 93.1 to 94.1 °C | CCOC(=O)NCCS(=O)CC(=O)O (configuration not stated) |
| 184 to 185 °C | COc1ccc(CNC(=O)c2cc3c(=O)n(CCOc4ccc(Br)cc4)c(=O)n(C)c3s2)cc1 |

| melting point | SMILES |
| --- | --- |
| 129 to 130 °C | O=C(O)CCCCCNC(=O)S[C@@H]1CC(=O)N(Cc2ccc(Oc3ccc(F)cc3)nc2)C1 |
| 47 to 48 °C | c1ccc2c(c1)CC[C@H]1O[C@@H]21 |
| 220 °C | COc1cnc(N2CCN(c3ccc(-n4c(C)nn(CC(=O)c5ccc(Cl)cc5)c4=O)cc3)CC2)nc1 |
| 163 to 165 °C | CCOc1cc(C(CC#N)N2C(=O)c3ccc4ccccc4c3C2=O)ccc1OC (configuration not stated) |
| 162 to 168 °C | COc1cc2c(c3c1OC(C)(C)C3)C(c1cccc(N3C(=O)c4ccccc4C3=O)c1)=NC(C)(C)C2 |
| 131 to 134 °C | CC(C)Nc1cccnc1N1CCN(C(=O)c2ccc(C(=O)NCCc3cccs3)cn2)CC1 |
| 47 to 48 °C | Cc1cc(Br)cc(C)c1OCCO |
| 201 to 202 °C | Cc1cc(C)n(-c2nc(-c3ccc(Cl)cc3)c(CCC(=O)O)o2)n1 |
| 82 to 88 °C | CC(=Cc1ccc(C(C)(C)C)cc1)C[N+]1([O-])CCCCC1 |
| 220 to 221 °C | O=C(O)Cc1ccc2c(c1)sc1ccc(Cl)cc12 |
| 56 to 57 °C | CNCCCCn1c(-c2ccc(Br)cc2)csc1=Nc1ccccc1 |
| 87 to 88 °C | CCOC(=O)C(O)CCc1ccc(C(=O)CCc2nc(-c3ccccc3)oc2C)cc1 (configuration not stated) |
| 198 to 203 °C | O=C(CC1CCOCC1)c1c(O)c2cccnc2n(-c2ccccc2)c1=O |
| 117 to 120 °C | N[C@@H](CO)C(=O)NC(=O)N(CCCl)N=O |
| > 300 °C | CN1CCN(c2ccc(N/C=C3\C(=O)NC(=O)c4ccc(C(=O)N(C)C)cc43)cc2)CC1 |
| 154 to 155 °C | CCOC1=C(N(C(C)=O)C(C)C)C(=O)c2cnn(C)c2C1=O |
| 82 to 84 °C | CCOC(=O)C(C)(C)CCCOc1ccc(OCCn2c(=O)sc3cc(C(=O)c4ccccc4)ccc32)cc1 |
| 115 to 116 °C | COCCOc1ccc(O)c(C(=O)O)c1 |
| 141 to 143 °C | Oc1cc(-c2ncnc(C(F)F)c2Cl)c(F)cc1Cl |
| 154 to 156 °C | CC#CCn1nnc2cc3c(=O)n(C(C)Cn4nccn4)nnc3cc2c1=O (configuration not stated) |
| 182 to 184 °C | CCCCc1ncc(/C=C(\Cc2cccs2)C(=O)O)n1Cc1cccc([N+](=O)[O-])c1 |
| 144 to 146 °C | O=c1ccc(-c2c(-c3ccccc3)nn3ccccc23)nn1[C@H]1CCNC1 |
| 161 to 163 °C | CN(C)c1ccc(C=C2Cc3cc4c(cc3C2=O)CCCC4)cc1 |
| 167 to 170 °C | CC(=O)N1OC(C)C(=S)NC1c1ccccc1C (configuration not stated) |

| melting point | SMILES |
| --- | --- |
| 282 to 288 °C | O=C(Nc1ccc(C(=O)N2CCc3cn[nH]c3-c3sccc32)c(Cl)c1)c1cc(Cl)ccc1F |
| 161 to 163 °C | CCCNC(=O)CCCn1c(CCC)nc2c(N)nc3ccccc3c21 |
| 68 to 71 °C | CCCCOC(=O)OCN1C(=O)CN(CCN2CC(=O)N(COC(=O)OCCCC)C(=O)C2)CC1=O |
| 112 to 114 °C | N#Cc1cc(Oc2ccccc2)ccc1O |
| 93 to 94 °C | OCCCCCc1ccc(OCc2coc(/C=C/c3ccccc3)n2)cc1 |
| 118 to 120 °C | COC(=O)Cc1cc2ccc(OC)cc2n(Cc2ccccc2)c1=O |
| 166 to 170 °C | O=C(CN1CCC(Cc2ccccc2)CC1)Nc1ccc2c(c1)CC(=O)N2 |
| 130 to 138 °C | CON=C(Nc1nc(C)cc(C)n1)NS(=O)(=O)c1ccccc1S(=O)(=O)OC |
| 140 to 160 °C | C[C@H](NC(CCC(=O)O)C(=O)O)C(=O)N1CCC[C@H]1C(=O)O (some centres not stated) |
| 77 to 81 °C | Cc1ccc(Cl)c(-c2ccc(S(=O)(=O)N3c4ccccc4CC3C(=O)NCCOc3ccc(CC(=O)O)cc3)cc2)c1 (configuration not stated) |
| 116 to 118 °C | CCOC(=O)N1CCC(=C2c3ccc(F)cc3CCc3cccnc32)CC1 |
| 194 to 195 °C | NS(=O)(=O)c1ccc(S(=O)(=O)N2CCC(=O)CC2)cc1 |
| 224 to 226 °C | CS(=O)(=O)c1ccc(C=Cc2ccc(OCCO)cc2)cc1 |
| 125 to 127 °C | CCc1ccc(NC(=O)OCc2ccccc2)nc1 |
| 215 °C | Cc1nc2n(C)ncn2c(=O)c1CCO |
| 145 to 160 °C | ON=C(c1ccc(O)c(Cl)c1Cl)c1cccc2ccccc12 |
| 225 to 227 °C | Cc1ccnc2c1C(=O)c1cc([N+](=O)[O-])ccc1-2 |
| 105 to 106 °C | COC[C@H](O)CNc1ccc2cc(OCc3ccccc3)ccc2c1 |
| 63.5 to 64 °C | CCCCCCCCCCCCCCCCCCOc1ccc([N+](=O)[O-])cc1[N+](=O)[O-] |
| 267 to 270 °C | Cn1c(-c2ccccc2)nc2nc(-c3ccc(Cl)cc3)nn2c1=S |
| 191 to 193 °C | O=C(CC1c2ccc(-c3ccccc3)cc2S(=O)(=O)N1c1ccccc1)NO (configuration not stated) |
| 197 to 198 °C | Nc1nc(Cl)c2cnn(Cc3ccccc3F)c2n1 |

| SMILES | melting point |
| --- | --- |
| Cc1nnc2n1-c1ccc(Cl)cc1C(c1ccccc1)=CC2 | 235 °C |
| Cc1ccc2c(C(=O)C3CSC(c4cccnc4)N3)c[nH]c2c1 (configuration not stated) | 132 to 138 °C |
